pIC50: −log10 of the molar value. Activity calls are given as the source filed them. No cut-off for these calls is given here.
How the values were obtained:
Assay type in all cases: functional, cell-based
HeLa [1] = assay: Cytotoxicity against human HeLa cells incubated for 72 hrs by WST-8 assay
HeLa [2] = assay: Induction of morphological alteration in human HeLa cells at 50 uM measured within 3 hrs by real-time digital microscopy
HeLa [3] = assay: Inhibition of cell division in human HeLa cells at 50 uM measured within 3 hrs by real-time digital microscopy
HeLa [4] = assay: Induction of apoptosis in human HeLa cells at 50 uM measured within 24 hrs by real-time digital microscopy
HeLa [5] = assay: Induction of apoptosis in human HeLa cells at 50 uM assessed as appearance of elongated cellular morphology incubated for 72 hrs by Hoechst 33342 staining based microscopic method
HeLa [6] = assay: Induction of apoptosis in human HeLa cells at 50 uM assessed as nuclear fragmentation incubated for 72 hrs by Hoechst 33342 staining based microscopic method

**Q.** For `COc1cc(C[C@H](C)N)cc(O)c1-c1ccc(OC)c2c(OC)cc(C)cc12` (atropisomer P), which Activity (HeLa [1]) is on record?
**A.** Dose-dependent effect

**Q.** And the pIC50 (HeLa [1])?
**A.** 4.95

**Q.** What about the Activity (HeLa [2]) of the same compound?
**A.** Active

**Q.** And the inhibition (HeLa [3])?
**A.** Active

**Q.** And the Activity (HeLa [4])?
**A.** Active

**Q.** And the Activity (HeLa [5])?
**A.** Active

**Q.** And the Activity (HeLa [6])?
**A.** Active

**Q.** With `CN[C@@H](C)Cc1cc(O)c(-c2c(C)cc(OC)c3c(OC)cccc23)c(OC)c1` (atropisomer P) as the compound, how does the pIC50 (HeLa [1]) read?
**A.** 4.28

**Q.** `COc1cc(C[C@H](C)N)cc(O)c1-c1c(C)cc(OC)c2c(OC)cccc12` (atropisomer P) was tested. Which pIC50 (HeLa [1]) did it give?
**A.** 4.14

Source: ChEMBL document CHEMBL4610071, “Ancistrosecolines A-F, Unprecedented seco-Naphthylisoquinoline Alkaloids from the Roots of Ancistrocladus abbreviatus, with Apoptosis-Inducing Potential against HeLa Cancer Cells” (J Nat Prod, 2020)
